Assay: gradient 5% acetonitrile 3 min, to 50% in 2 min, to 85% in 15 min, held 3 min, 100 µL/min
Settings: column: Zorbax Extend-C18 2.1 x 50 mm; eluents: water / acetonitrile, 0.1% formic acid
Summary of the method: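 The mobile phases were water and acetonitrile, each with 0.1% formic acid, pumped at 100 μL/min through a Zorbax Extend-C18 column (2.1 × 50 mm, 1.8 μm). Pure standards were injected as mixtures of ~100 molecules and detected by a quadrupole time-of-flight mass spectrometer in positive and negative ionization mode. Retention time came from computationally picked adduct peaks, each inspected by hand.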

Row | SMILES | RP-LC retention time
1 | CCc1nc2cc(-c3noc(CNC(=O)c4ccccc4)n3)ccc2o1 | 821 s
2 | CCOc1ncccc1CNC(=O)c1sccc1C | 822 s
3 | CC(=O)N1CCc2cc(N3CC(C(=O)NCc4cccc(C)c4)CC3=O)ccc21 (stereo not given) | 693 s
4 | CS(=O)(=O)c1ccccc1-c1nnc(NC(=O)c2cccc(N3C(=O)CCC3=O)c2)o1 | 609 s
5 | O=C(CN1CCc2ccccc2C1C(=O)N1CCCCC1)NCc1ccccn1 (stereo not given) | 755 s
6 | Cc1ccn2c(NC(=O)c3ccc(C)c(C)c3)c(-c3ccccc3)nc2c1 | 709 s
7 | COc1ccc(-c2nc(-c3ccc(S(=O)(=O)N4CCC(C)CC4)cc3)no2)cc1 | 1340 s
8 | COC(=O)COC(=O)c1cn(-c2cccc(F)c2)c(=O)c2ccccc12 | 938 s
9 | CCCNc1cc(N2CCC(CCC(=O)NCC3CC3)CC2)ncn1 | 560 s
10 | CC(C)CCNC(=O)C1(C)CCc2ccccc2C(=O)N1CCc1c[nH]c2ccccc12 (stereo not given) | 950 s
11 | CCn1cc(-c2ccc(OC)cc2)cc1C(=O)N(C)C | 842 s
12 | CCc1nc2cc(-c3noc(-c4nn(C)c5ccccc45)n3)ccc2o1 | 1130 s
13 | O=C(NCc1ccsc1)C(=O)Nc1cccnc1 | 566 s
14 | CCN1C(=O)C2(CCN(S(=O)(=O)c3ccc(C(C)C)cc3)CC2)c2ccccc21 | 1210 s
15 | Cc1ccn2cc(C(=O)NCc3cccc(F)c3)nc2c1 | 645 s
16 | Cc1cn(C)c(CC(=O)NCCN2CCCc3ccccc32)c1C(=O)O | 792 s
17 | COc1ccccc1CNC(=O)CN1CCN(Cc2ccccc2F)C1=O | 715 s
18 | CN1C(=O)[C@H]2CN(Cc3cccc(C#N)c3)C[C@H]2C1=O | 531 s
19 | CCOc1ccccc1C(=O)Nc1c(-c2ccccc2)nc2ccccn12 | 685 s
20 | COc1cccc(CNC(=O)C2(c3ccc(NC(C)=O)cc3)CCC2)c1 | 737 s
21 | CSc1cccc(NC(=O)N2CCc3nc(CNC(=O)C4CCC4)n(C)c3C2)c1 | 632 s
22 | Fc1ccc(OCc2cn(C3CN(Cc4ccc(F)cc4F)C3)nn2)cc1 | 703 s

Row | SMILES | RP-LC retention time
23 | Cn1cc(-c2cc3n(n2)CCCN3C(=O)CCC(=O)N2CCN(c3ccccn3)CC2)c2ccccc21 | 621 s
24 | CCc1nc(-c2csc(S(=O)(=O)N3CCC(C(=O)NCc4cccs4)CC3)c2)no1 | 860 s
25 | COc1cc(OC)c(NC(=O)N2CCCC(C)(C(=O)NCc3ccccc3)C2)cc1Cl (stereo not given) | 897 s
26 | CCN1CCC(n2cc(CNc3cc(Cl)c4ncc(C#N)c(Nc5ccc(F)c(Cl)c5)c4c3)nn2)CC1 | 727 s
27 | CCCn1cc(C2=CCN(S(=O)(=O)Cc3ccc(Cl)cc3)CC2)c2cccnc21 | 1100 s
28 | O=C([C@@H]1C[C@H](F)CN1S(=O)(=O)c1cc(F)ccc1F)N1CCc2ccccc2C1 | 906 s
29 | CC(C(=O)N1CCN(c2ccccn2)CC1)n1ccc2cc(S(=O)(=O)N3CCCC3)ccc21 (stereo not given) | 660 s
30 | CCCn1c(=O)c(N2CCN(C(=O)C3CCC3)CC2)nc2ccccc21 | 994 s
31 | O=C(CSc1nccnc1N1CCN(c2ccccc2)CC1)Nc1ccc(F)cc1F | 1110 s
32 | COc1ccc(CCC(=O)N2CCCC2c2cc(C)on2)cc1 (stereo not given) | 775 s
33 | COc1ccc(-c2nnc(Cc3nc(-c4ccccc4F)no3)o2)cc1OC | 848 s
34 | Cc1cc(N2CCN(C)CC2)nc2ccc(NC(=O)Nc3ccccc3Br)cc12 | 609 s
35 | Cc1cc(C)cc(OCCNS(=O)(=O)c2cccs2)c1 | 935 s
36 | CCOC(=O)CNC(=O)N1CCc2c([nH]c3ccc(OC)cc23)C1c1ccc(OC)cc1 (stereo not given) | 886 s
37 | O=C(CN1C(=O)C2CCCCN2c2ccc(C(=O)N3CCCC3)cc21)NCc1ccc(F)cc1Cl (stereo not given) | 863 s
38 | Cn1cc(C(=O)NCc2ccccc2F)c(S(=O)(=O)N2CCSCC2)n1 | 865 s
39 | COCCN1C(=O)[C@H]2CN(Cc3cccc(Cl)c3)C[C@H]2C1=O | 633 s
40 | COC(=O)c1ccc2c(=O)n(Cc3cccc(OC)c3)c(N3CCN(c4ccccn4)CC3)nc2c1 | 741 s
41 | COC(=O)c1sc2ccc(NC(=O)C3CCN(S(=O)(=O)N4CCOCC4)CC3)cc2c1OC | 853 s
42 | CC(C)CCNC(=O)C1(C)CN(S(=O)(=O)c2ccccc2)CC(=O)N1CCCc1ccccc1 (stereo not given) | 1050 s
43 | CC1CCN(S(=O)(=O)N2CCCC(C(=O)Nc3ccccc3C(=O)c3ccccc3)C2)CC1 (stereo not given) | 963 s
44 | COc1ccc(NC(=O)N2CCC3(C2)C(=O)Nc2ccc(OC)cc23)cc1 (stereo not given) | 697 s

Row | SMILES | RP-LC retention time
45 | O=C(NCc1ccco1)N1c2ccccc2CC1c1nc(C2CC2)no1 (stereo not given) | 891 s
46 | CCOc1ccc(NC(=O)Cn2c(C)cc(-c3nnc(C4CCC4)o3)c2C)cc1 | 896 s
47 | Cc1cc(=O)n(CC(=O)Nc2ccc(F)cc2)c(N2CCCC2)n1 | 618 s
48 | O=C(Cn1c(=O)oc2ccccc21)Nc1nc(-c2ccccc2)cs1 | 912 s
49 | O=C(CCc1c[nH]c2ccccc12)N1CCn2cnnc2C1 | 778 s
50 | COCCN1C(=O)c2ccccc2C(C(=O)Nc2ccccc2OC)C12CCCC2 (stereo not given) | 905 s
51 | Cc1cc(C)cc(NC(=O)Cn2cc(C(=O)N3CCCC3)c(=O)c3ccc(C)nc32)c1 | 758 s
52 | O=C(NCc1ccc(-c2noc(Cc3ccc(F)cc3)n2)s1)C1CC1 | 894 s
53 | COc1cccc(CNC(=O)Cn2c(=O)c3cc(-c4cccs4)nn3c3ncccc32)c1 | 835 s
54 | COC(=O)c1cc2c(=O)n(-c3ccc(OC)cc3OC)ccc2nc1C | 803 s
55 | Cc1oc(-c2[nH]ncc2C(=O)N2CCOCC2)cc1S(=O)(=O)NC1CCCC1 | 645 s
56 | Cc1ncccc1C(=O)N1[C@H]2CC[C@@H]1c1cnc(-c3ccc(F)cc3)nc1C2 | 705 s
57 | COc1ccc(N2CCN(c3cc(SCC(=O)Nc4cc(F)ccc4C)ncn3)CC2)cc1 | 1040 s
58 | Cn1c(=O)n(CC(=O)O)c(=O)c2c1nc1n2CCCN1c1ccc(F)cc1 | 632 s
59 | Cc1cc2n(n1)CCCN2C(=O)CCC(=O)NCc1ccc(N(C)C)cc1 | 609 s
60 | COc1cccc(N2CCN(C(=O)c3cn(-c4ccc(NC(C)=O)cn4)cn3)CC2)c1 | 680 s
61 | O=C(Cc1nnc(-c2ccc3ncccc3c2)o1)NCc1ccc(F)cc1 | 677 s
62 | O=C(CCc1ccc2[nH]ccc2c1)NCc1ccc(F)cc1 | 793 s
63 | Cc1ccc(-c2nnc(COc3cccc(NC(=O)c4n[nH]c5c4CCCC5)c3)o2)cc1 | 1010 s
64 | O=C(NCc1ccc(F)cc1F)c1c(O)c2cccnc2n(-c2cccc(F)c2)c1=O | 1190 s
65 | COC(=O)c1ncn2c1C(=O)N(CCCc1ccccc1)C(C)(C(=O)NCc1ccccc1)C2 (stereo not given) | 761 s
